Measurements as given in US20100113535A1, “TREATMENT OF PRESBYOPIA WITH ALPHA- PICOLINIC ACID AND ITS ANALOGS” (The Department of Veterans Affairs Technology Transfer …, priority 2005, published 2010).
pIC50: −log10 of the molar value. Like-named read-outs stand apart in the source and are kept apart here.

Key:
[1] = test system: porcine lens epithelial (PLE) cells; assay: Toxicity of PA and its analogs to PLE cell growth (cell counts, 50% inhibitory concentration); format: cell-based; conditions: for IC50 / pIC50: Sus scrofa, 120 hours (five days) with substance, treated cell count equal to 50% of control; for IC50: from FIG. 5, read-out: IC50 μg/mL; for pIC50: from FIG. 5, read-out: IC50 mmol/L
Description: FIG. 5. Toxicity of Picolinic Acid and its analogs in Pig Lens Epithelial Cells. Pig lens epithelial cells were plated in quadruplicate in 24 well trays at 5000 cells/well using minimal essential media plus 10% fetal calf serum (10% FCS MEM) with antibiotics. At 24 hours after plating, substances were added with a media change, at appropriate concentrations. Cells were allowed to grow for an additional 120 hours in the presence of the various substances. Cells were then counted, four dishes, in duplicate, and the cell counts were expressed as a percentage of the control cell counts.
Growth curve data were obtained from cells plated without any agents. Cell counts were performed daily on a total of eight wells per point, by combining four wells per count and performing counts in duplicate.
The toxicity of PA and its analogs to the PLE cells was tested according to the method of Senderoff et al. (66) PLE cells were plated in 24 well trays at 5000 cells per well in 1 mL of tissue culture medium (see above). The medium was changed at 24 hours, and new medium containing the analogs was added. Five days after addition of substances, cell counts were performed using a total of four wells per point, by combining two wells per count, and performing counts in duplicate. Results were expressed as a percentage of the untreated or control cell counts.

[2] = test system: PLE cells; assay: Induction of apoptosis in PLE cells (DNA fragmentation detection kit); format: cell-based, porcine; conditions: for effect on monolayer growth, floating cells and DNA laddering staining: 48 hours, 3 mM picolinic acid, 0.3 mM fusaric acid; for state of cells at 72 hours: 3 mmol/L PA, 0.3 mmol/L FA, results not shown; for induction of apoptosis in PLE cells: discussion statement
Description: FIG. 6. Induction of Apoptosis in PLE cells. PLE cells were grown in 35 mm dishes in tissue culture. Analogs were added to media 24 hours after cells were plated. After 48 hours of incubation, floating or supernatant cells were spun onto slides and stained using the DNA fragmentation kit. The conditions are as follows: A. Control monolayer; B. Control stained supernatant; C. 3 mM picolinic acid monolayer; D. 3 mM picolinic acid stained supernatant; E. 0.3 mM fusaric acid monolayer; F. 0.3 mM fusaric acid stained supernatant.
The ability of PA and its analogs to induce apoptosis was detected with the DNA fragmentation detection kit (Oncogene Research Products, Boston, Mass.). One of the molecular effects of apoptosis is the formation of oligonucleosomal DNA fragments by DNA laddering (67). The kit includes a Klenow DNA polymerase that labels 3′-OH terminals of DNA, which are formed in the laddering process. Incorporated biotinylated nucleotides are then detected with a chromogenic labeling system of streptavidin-horseradish peroxidase diaminobenzidine. Cells were plated in 35-mm wells at a density of 50,000 cells per well. 24 hours after plating, analogs were added concurrently with fresh media. Pictures were taken after 48 hours of exposure to the analogs. Floating cells were washed and placed in Saccomanno's fixative (Shandon, Pittsburgh, Pa.), centrifuged onto Superfrost slides (Fisher Scientific, Pittsburgh, Pa.) with a CytoSpin centrifuge (Shandon, Pittsburgh, Pa.), and stained according to the protocol given.
To test for the role of apoptosis in the toxicity of PA and its analogs, the PLE cells were exposed to 0.3 mmol/L FA and 3 mmol/L of PA.

[3] = test system: corneal endothelium; assay: Toxicity in corneal endothelium (Janus Green staining of pig corneas); conditions: for Janus Green staining relative to untreated control: 48 hours, corneal endothelium in 2% FCS M199; for Avg Abs650/SD (Janus Green stain eluted from trephine cut-outs of treated corneas): 48 hr in 2% FCS M-199, PA 3 mM, FA 0.3 mM, absorbance at 650 nm
Description: Testing of Toxicity in Corneal endothelium: To test for the effects of PA and FA on corneal endothelium, fresh corneas from pig eyes were aseptically dissected out, with a 2 mm scleral ring and placed in 2% FCS M-199 medium with antibiotics, as M-199 medium has previously been used for corneal experiments (84).
Times of incubation and concentrations which were used in the apoptosis experiment were implemented, i.e. 48 hours at 3 mM PA and 0.3 mM FA. Serum concentration of 2% was employed to maintain the corneal cells without undo stimulation. Corneas were rinsed with Hanks Balanced Salt Solution (HBSS) and stained for 90 seconds with 0.2 mL 1% Janus Green (85) in HBSS as a test for viability. The corneas were again rinsed. Negative controls were set up by placing corneas in 100% ethanol for 5 minutes prior to addition of Janus Green, to give staining in 100% “damaged” corneas. Using an 8 mm trephine, the central section of the cornea was punched out, and the dye was eluted with 2 ml 100% ethanol and the absorbance was measured at 650 nm. The Janus Green staining experiment of corneas was repeated twice. Duplicate samples were used for drug conditions and triplicate samples for controls. Janus green staining was also carried out on fresh cornea, for comparison purposes.

[4] = test system: WI-38 cells; conditions: 0.5 mM fusaric acid, cited from earlier work

| Structure (SMILES) | IC50 [1] [µg/mL] | pIC50 [1] | effect on monolayer growth, floating cells and DNA laddering staining [2] | effect on monolayer growth, floating cells and DNA laddering staining ([2]; listed as PA) | state of cells at 72 hours [2] | state of cells at 72 hours ([2]; listed as PA) | induction of apoptosis in PLE cells [2] | Janus Green staining relative to untreated control [3] | Avg Abs650/SD (Janus Green stain eluted from trephine cut-outs of treated corneas) [3] | times more toxic than PA (on concentration basis) ([1]; from IC50 data) | effect on monolayer growth, floating cells and DNA laddering staining ([2]; listed as FA) | viability of confluent WI-38 cells ([4]; confluent cells, 48 hour incubation) | decrease in viability of logarithmically growing WI-38 cells ([4]; logarithmically growing cells, by 30 hours) [%] | times less toxic than PA ([1]; from IC50 data) [times] |
| --- | --- | --- | --- | --- | --- | --- | --- | --- | --- | --- | --- | --- | --- | --- |
| O=C(O)c1ccccn1 [Picolinic acid] | 55.3 | 3.35 | inhibits growth of the monolayer with few floating cells | inhibition of cell growth but little cell death | many floating cells | very few cells were still attached | rapidly induced apoptosis | stained less than the untreated control | 0.321 ± 0.041 | – | – | – | – | – |
| O=C(O)c1cccnc1 [Nicotinic acid, nicotinic acid] | 539 | 2.36 | – | – | – | – | – | – | – | – | – | – | – | – |
| CCCCc1ccc(C(=O)O)nc1 [Fusaric acid, fusaric acid] | 5.6 | 4.51 | many floating cells, with strong nuclear staining | – | no living cells were seen | – | rapidly induced apoptosis | stained less than the untreated control | 0.287 ± 0.011 | about 15 times | significant cell death by the apoptotic pathway | no significant drop in viability | 76 | – |
| O=C(O)c1cccc(C(=O)O)n1 [Dipicolinic acid] | 185 | 2.96 | – | – | – | – | – | – | – | – | – | – | – | 2.5 |
